Test system: cutaneous lesions arising from either basal cell cancer, squamous cell cancer or CMBC
Experiment: Phase 1/2 dose escalation study of SnET2 PDT: lesion response
Assay type: in vivo, patients
Experimental: Two Phase 1/2 studies established the clinical dosimetry. The first study was a dose escalation study that enrolled a total of 22 patients with cutaneous lesions arising from either basal cell cancer, squamous cell cancer or CMBC. A total of 213 lesions were treated using photosensitizer SnET2) doses ranging from 0.1-1.2 mg/kg, light doses of 100, 150 or 200 J/cm^2 and treatment timepoints of 24, 48, or 72 hours post-infusion. Two key measures were utilized in these studies, lesion reaction and lesion response. Lesion reaction was an acute characterization of the treatment effect that was performed out to 1 week post-treatment according to the following scale: • Grade 0=No visual erythema or edema • Grade 1=Faint erythema and/or slight edema • Grade 2=Moderate erythema and edema • Grade 3=Severe discoloration, edema, sloughing or eschar
Beginning at one month post-treatment and then at 3 and 6 months post-treatment, a lesion response assessment was conducted according to the following scoring system: • Complete Response (complete reduction of the lesion) • Partial Response (more than 50% reduction of the lesion) • Failure (less than 50% reduction of the lesion).
Therefore, in the analysis that follows, results from all three treatment timepoints have been combined.
A similar result was observed when individual patient responses were compared. In these studies, individual patients received a single drug dose and each patient then had individual lesions treated at various light doses (100, 150, or 200 J/cm^2) and treatment timepoints (24, 48, 72 hours post-infusion). In Table 3, results for each patient treated at 0.8 mg/kg or higher are provided. In each drug dose case, individual lesions were treated at one of the three light doses and one of the three treatment timepoints, all of which have been combined for each individual patient result in the table.

[1] = 0.1 mg/kg, 100 J/cm^2, 24/48/72 h combined
[2] = 0.1 mg/kg, 150 J/cm^2, 24/48/72 h combined
[3] = 0.1 mg/kg, 200 J/cm^2, 24/48/72 h combined
[4] = 0.2 mg/kg, 100 J/cm^2, 24/48/72 h combined
[5] = 0.2 mg/kg, 150 J/cm^2, 24/48/72 h combined
[6] = 0.2 mg/kg, 200 J/cm^2, 24/48/72 h combined
[7] = 0.4 mg/kg, 100 J/cm^2, 24/48/72 h combined
[8] = 0.4 mg/kg, 150 J/cm^2, 24/48/72 h combined
[9] = 0.4 mg/kg, 200 J/cm^2, 24/48/72 h combined
[10] = 0.8 mg/kg, 100 J/cm^2, 24/48/72 h combined
[11] = 0.8 mg/kg, 100 J/cm^2, lesions scored for reaction at Week 1
[12] = 0.8 mg/kg, 150 J/cm^2, 24/48/72 h combined
[13] = 0.8 mg/kg, 150 J/cm^2, lesions scored for reaction at Week 1
[14] = 0.8 mg/kg, 200 J/cm^2, 24/48/72 h combined
[15] = 0.8 mg/kg, 200 J/cm^2, lesions scored for reaction at Week 1
[16] = 1.0 mg/kg, 100 J/cm^2, 24/48/72 h combined
[17] = 1.0 mg/kg, 100 J/cm^2, lesions scored for reaction at Week 1
[18] = 1.0 mg/kg, 150 J/cm^2, 24/48/72 h combined
[19] = 1.0 mg/kg, 150 J/cm^2, lesions scored for reaction at Week 1
[20] = 1.0 mg/kg, 200 J/cm^2, 24/48/72 h combined
[21] = 1.0 mg/kg, 200 J/cm^2, lesions scored for reaction at Week 1
[22] = 1.2 mg/kg, 100 J/cm^2, 24/48/72 h combined
[23] = 1.2 mg/kg, 100 J/cm^2, lesions scored for reaction at Week 1
[24] = 1.2 mg/kg, 150 J/cm^2, 24/48/72 h combined
[25] = 1.2 mg/kg, 150 J/cm^2, lesions scored for reaction at Week 1
[26] = 1.2 mg/kg, 200 J/cm^2, 24/48/72 h combined
[27] = 1.2 mg/kg, 200 J/cm^2, lesions scored for reaction at Week 1
[28] = patient RC004, drug dose 0.8 mg/kg, light doses and timepoints combined
[29] = patient RC005, drug dose 1.2 mg/kg, light doses and timepoints combined
[30] = patient RC006, drug dose 1.2 mg/kg, light doses and timepoints combined
[31] = patient RC007, drug dose 1.2 mg/kg, light doses and timepoints combined
[32] = patient SC001, drug dose 1.2 mg/kg, light doses and timepoints combined
[33] = patient SC002, drug dose 1 mg/kg, light doses and timepoints combined
[34] = patient SC003, drug dose 1 mg/kg, light doses and timepoints combined
[35] = patient SC004, drug dose 1 mg/kg, light doses and timepoints combined
[36] = patient SC005, drug dose 1.2 mg/kg, light doses and timepoints combined
[37] = patient WC007, drug dose 0.8 mg/kg, light doses and timepoints combined
[38] = patient WC008, drug dose 0.8 mg/kg, light doses and timepoints combined
[39] = patient WC009, drug dose 1.2 mg/kg, light doses and timepoints combined
[40] = patient WC010, drug dose 1.2 mg/kg, light doses and timepoints combined

Substance: tin ethyl etiopurpurin [SnET2]
- Complete Responders [1]: 0
- Partial Responders [1]: 0
- Response Rate (%) [1]: 0%
- Total Responders [1]: 0
- Complete Responders [2]: 0
- Partial Responders [2]: 0
- Response Rate (%) [2]: 0%
- Total Responders [2]: 0
- Complete Responders [3]: 0
- Partial Responders [3]: 0
- Response Rate (%) [3]: 0%
- Total Responders [3]: 0
- Complete Responders [4]: 0
- Partial Responders [4]: 1
- Response Rate (%) [4]: 50%
- Total Responders [4]: 1
- Complete Responders [5]: 0
- Partial Responders [5]: 0
- Response Rate (%) [5]: 0%
- Total Responders [5]: 0
- Complete Responders [6]: 0
- Partial Responders [6]: 0
- Response Rate (%) [6]: 0%
- Total Responders [6]: 0
- Complete Responders [7]: 0
- Partial Responders [7]: 0
- Response Rate (%) [7]: 0%
- Total Responders [7]: 0
- Complete Responders [8]: 0
- Partial Responders [8]: 0
- Response Rate (%) [8]: 0%
- Total Responders [8]: 0
- Complete Responders [9]: 0
- Partial Responders [9]: 0
- Response Rate (%) [9]: 0%
- Total Responders [9]: 0
- lesions with responses (0.8 mg/kg or higher): 95 of 102
- Complete Responders [10]: 9
- Partial Responders [10]: 2
- Response Rate (%) [10]: 78%
- Total Responders [10]: 11
- % Responders [11]: 79%
- Total Responders [11]: 11
- Complete Responders [12]: 8
- Partial Responders [12]: 5
- Response Rate (%) [12]: 87%
- Total Responders [12]: 13
- % Responders [13]: 87%
- Total Responders [13]: 13
- Complete Responders [14]: 12
- Partial Responders [14]: 1
- Response Rate (%) [14]: 87%
- Total Responders [14]: 13
- % Responders [15]: 87%
- Total Responders [15]: 13
- Complete Responders [16]: 3
- Partial Responders [16]: 0
- Response Rate (%) [16]: 100%
- Total Responders [16]: 3
- % Responders [17]: 100%
- Total Responders [17]: 3
- Complete Responders [18]: 4
- Partial Responders [18]: 1
- Response Rate (%) [18]: 100%
- Total Responders [18]: 5
- % Responders [19]: 100%
- Total Responders [19]: 5
- Complete Responders [20]: 8
- Partial Responders [20]: 0
- Response Rate (%) [20]: 100%
- Total Responders [20]: 8
- % Responders [21]: 100%
- Total Responders [21]: 8
- Complete Responders [22]: 5
- Partial Responders [22]: 7
- Response Rate (%) [22]: 100%
- Total Responders [22]: 12
- % Responders [23]: 100%
- Total Responders [23]: 6
- Complete Responders [24]: 7
- Partial Responders [24]: 9
- Response Rate (%) [24]: 100%
- Total Responders [24]: 16
- % Responders [25]: 100%
- Total Responders [25]: 9
- Complete Responders [26]: 11
- Partial Responders [26]: 3
- Response Rate (%) [26]: 100%
- Total Responders [26]: 14
- % Responders [27]: 100%
- Total Responders [27]: 7
- response rate of individual patients (all patients at 0.8 mg/kg or higher, with the exception of one patient dosed at 0.8 mg/kg): 100%
- response at the drug dose threshold and greater (at about 0.5 to about 0.8 mg/kg and greater (1.2 mg/kg)): good responses were observed
- threshold dose for lesion response (dose escalation 0.1-1.2 mg/kg): 0.8 mg/kg
- response below the drug dose threshold (doses below about 0.5 to about 0.8 mg/kg): no response was observed
- Lesions Responded (doses less than 0.8 mg/kg): 1 of 111
- influence of light dose and treatment timepoint (light doses 100 to 200 J/cm^2, timepoints 24 to 72 hours post administration): did not indicate significant differences
- variation in response with treatment timepoint (light given at 24, 48 or 72 hours after administration): minimal variation in response with treatment timepoint
- % Lesions Responded [28]: 74%
- Lesions Responded [28]: 20
- % Lesions Responded [29]: 100%
- Lesions Responded [29]: 6
- % Lesions Responded [30]: 100%
- Lesions Responded [30]: 1
- % Lesions Responded [31]: 100%
- Lesions Responded [31]: 3
- % Lesions Responded [32]: 100%
- Lesions Responded [32]: 4
- % Lesions Responded [33]: 100%
- Lesions Responded [33]: 6
- % Lesions Responded [34]: 100%
- Lesions Responded [34]: 6
- % Lesions Responded [35]: 100%
- Lesions Responded [35]: 4
- % Lesions Responded [36]: 100%
- Lesions Responded [36]: 6
- % Lesions Responded [37]: 100%
- Lesions Responded [37]: 9
- % Lesions Responded [38]: 100%
- Lesions Responded [38]: 8
- % Lesions Responded [39]: 100%
- Lesions Responded [39]: 20
- % Lesions Responded [40]: 100%
- Lesions Responded [40]: 2
